Laboratory results published in ChEMBL document CHEMBL4808212 (Bioorg Med Chem Lett, 2021).

How the values were obtained:
[1] = target: Replicase polyprotein 1ab (Severe acute respiratory syndrome coronavirus 2, UniProt P0DTD1); test: Inhibition of SARS-CoV-2 3CLpro preincubated for 30 mins followed by addition of (Dabcyl)KTSAVLQSGFRKM(Glu) peptide substrate and measured after […] by FRET assay
[2] = Binding affinity to SARS coronavirus 1 3CL protease using Dabcyl-KTSAVLQ/SGFRKME-Edans as substrate measured by FRET assay; design: species or system Severe acute respiratory syndrome-related coronavirus
[3] = Inhibition of SARS coronavirus 1 3CL protease using Dabcyl-KTSAVLQ/SGFRKME-Edans as substrate measured by FRET assay; design: species or system Severe acute respiratory syndrome-related coronavirus
[4] = Inhibition of SARS coronavirus 1 3CL protease expressed in Escherichia coli measured by HPLC method; design: species or system Severe acute respiratory syndrome-related coronavirus

CCOC(=O)/C=C/[C@H](C[C@@H]1CCNC1=O)NC(=O)[C@H](CC(C)C)NC(=O)[C@@H](NC(=O)OCc1ccccc1)C(C)C
IC50 [1]: 286 nM

CC(C)C[C@H](NC(=O)OCc1ccccc1)C(=O)N[C@@H](C[C@@H]1CCNC1=O)C(=O)c1nc2ccccc2s1
IC50 [1]: > 10000 nM

O=C[C@H](C[C@@H]1CCNC1=O)NC(=O)[C@H](Cc1cccc(F)c1)NC(=O)c1cc2ccccc2[nH]1
IC50 [1]: 23 nM

C[C@@H](OC(C)(C)C)[C@H](NC(=O)OCc1ccccc1)C(=O)N[C@@H](CC1CCCCC1)C(=O)N[C@H](C=O)C[C@@H]1CCNC1=O
Ki [2]: 53 nM

CC(C)C[C@H](NC(=O)OCc1ccccc1)C(=O)N[C@@H](CC(C)C)C(=O)N[C@@H](C[C@@H]1CCNC1=O)C(=O)C(=O)NC(C)C
IC50 [3]: 7 nM | IC50 [1]: 65 nM

COc1cccc2[nH]c(C(=O)N[C@@H](CC(C)C)C(=O)N[C@@H](C[C@@H]3CCNC3=O)C(=O)CO)cc12 [PF-00835231]
IC50 [4]: 4 nM
